Source: US6827926B2, “Metallotetrapyrrolic photosensitizing agents for use in photodynamic therapy” (Miravant Pharmaceuticals, Inc., priority 2001, dated 2004)

What was measured:
[1] = test system: normal skin of CD Hairless male rats; type: in vivo, rat; conditions: rat, in vivo
Method in brief: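 Liposomal egg yolk phospholipid photosensitizer given as single i.v. tail-vein bolus at 1, 1.5 and 2 μmol/kg; skin spots irradiated with 532 nm laser (150 mW/cm^2, 150J, 1 cm) at 1, 6, 24, 48, 96 hrs post injection. Value is time of last observed skin response spot.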

[2] = test system: V79 (Chinese Hamster Lung Fibroblasts) cells; test: In vitro cytotoxicity assay (light EC50, Alamar blue); type: cell-based; conditions: Table 3 porphyrins, 24 h drug incubation, 532 nm, 1.25 J/cm^2, read-out: In Vitro EC50 Light
Method in brief: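 V79 cells in phenol-free 5% FBS/DMEM exposed 24 h to photosensitizer at final 0.01–5.0 μM, six replicates, then washed and light-treated, with a dark plate as control. Survival by Alamar blue after 24 h dark incubation, read at 570/600 nm.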

[3] = test system: normal uninjured rat carotid arteries (medial and adventitial cell populations); test: In vivo rat carotid artery acellularity after PDT; parameters: species or system Sprague Dawley rats; conditions: for Max % rat Artery Accelularity: Table 3
Method in brief: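 Metallated photosensitizers light-activated in normal uninjured rat left common carotid via balloon catheter introduced through femoral arteriotomy under isoflurane; excitation 575 nm (Ga, Zn, Al, Sn) or 532 nm (Pt). Arteries harvested 3 days post-treatment, H&E-stained; medial and adventitial cell density assessed by light microscopy.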

[4] = drug dose 1 μMol, 50 J/cm^2, 3 days post treatment

SMILES | Normal skin Response (1 μmol) [1] [h] | EC50 [2] [µM] | Max % rat Artery Accelularity [3, 4] [%] | factor of decrease of normal skin response / skin clearance time versus the parent methyl ester [1] | acellularity (rat artery) ([3]; text b234, 1 μmol/Kg (printed 1 mol/Kg for 57)) [%] | Max % rat Artery Accelularity ([3]; drug dose 0.5 μMol) [%]
CCOC(=O)CCCCC1=C(C)C2=Cc3c(CC)c(C)c4[n]3[Al-2]35([Cl])[n]6c(c(C)c(CCCCC(=O)OCC)c6=CC1=[N+]23)=CC1=[N+]5C(=C4)C(CC)=C1C [Example 54, Aluminum Chloride 8,13-diethyl-3,7,12,17-tetramethylporphyrin-2,18-di(pentanoic acid ethyl ester)] | 24 | 4 | 0 | – | – | –
CCOC(=O)CCCCC1=C(C)C2=Cc3c(CC)c(C)c4[n]3[Zn-2]35[n]6c(c(C)c(CCCCC(=O)OCC)c6=CC1=[N+]23)=CC1=[N+]5C(=C4)C(CC)=C1C (centres unmarked) [Example 55, Zinc 8,13-diethyl-3,7,12,17-tetramethylporphyrin-2,18-di(pentanoic acid ethyl ester)] | 24 | 4 | 0 | – | – | –
CCCOC(=O)CCCCC1=C(C)C2=Cc3c(CC)c(C)c4[n]3[Ga-2]35([Cl])[n]6c(c(C)c(CCCCC(=O)OCCC)c6=CC1=[N+]23)=CC1=[N+]5C(=C4)C(CC)=C1C [Example 56, Gallium Chloride 8,13-diethyl-3,7,12,17-tetramethylporphyrin-2,18-di(pentanoic acid propyl ester)] | 24 | 0.4 | 75 | – | – | –
CCC1=C(C)c2cc3[n-]c(cc4nc(cc5[n-]c(cc1n2)c(C)c5CC)C(C)=C4CCCCC(=O)OC)c(CCCCC(=O)OC)c3C.[Cl-].[Ga+3] [Example 57, Gallium Chloride 8,13-diethyl-3,7,12,17-tetramethylporphyrin-2,18-di(pentanoic acid methyl ester)] | 6 | 0.46 | 80 | 8 | 80 | –
CCC1=C(C)C2=[N+]3C1=Cc1c(C)c(CC)c4[n]1[Sn-2]31([Cl])([Cl])[n]3c(c(C)c(CCC(=O)NC)c3=CC3=[N+]1C(=C4)C(C)=C3CCC(=O)NC)=C2 [Example 58, Tin(IV)dichloride Mesoporphyrin N-methylamide] | 24 | 1.2 | 10 | – | – | –
CCC1=C(C)C2=[N+]3C1=Cc1c(C)c(CC)c4[n]1[In-2]31([Cl])[n]3c(c(C)c(CCC(=O)NC)c3=CC3=[N+]1C(=C4)C(C)=C3CCC(=O)NC)=C2 [Example 59, Indium Chloride Mesoporphyrin N-methylamide] | 48 | 0.17 | 60 | – | – | –
CCC1=C(C)C2=[N+]3C1=Cc1c(C)c(CC)c4[n]1[Pt-2]31[n]3c(c(C)c(CCC(=O)NC)c3=CC3=[N+]1C(=C4)C(C)=C3CCC(=O)NC)=C2 (centres unmarked) [Example 60, Platinum Mesoporphyrin N-methylamide] | 96 | 0.12 | 25 | – | – | –
CCC1=C(C)C2=[N+]3C1=Cc1c(C)c(CC)c4[n]1[Zn-2]31[n]3c(c(C)c(CCC(=O)N(CC)CC)c3=CC3=[N+]1C(=C4)C(C)=C3CCC(=O)N(CC)CC)=C2 (centres unmarked) [Example 62, Zinc Mesoporphyrin N,N-diethylamide] | 24 | 4 | 0 | – | – | –
CCC1=C(C)c2cc3[n-]c(cc4nc(cc5[n-]c(cc1n2)c(C)c5CC)C(C)=C4CCCO)c(CCCO)c3C.[Cl-].[In+3] [Example 72, Indium Chloride 8,13-diethyl-3,7,12,17-tetramethylporphyrin-2,18-di(3′-hydroxypropyl)] | 96 | 0.04 | – | – | – | 40
CCC1=C(C)c2cc3[n-]c(cc4nc(cc5[n-]c(cc1n2)c(C)c5CC)C(C)=C4CCCO)c(CCCO)c3C.[Pt+2] [Example 74, Platinum 8,13-diethyl-3,7,12,17-tetramethylporphryin-2,18-di(3′-hydroxypropyl)] | 24 | 0.1 | 25 | – | – | –
